Test [1] concerns MaTu-ADR. The test is described as follows: Proliferation assay, MaTu-ADR. The conditions noted are these: Homo sapiens, 96 h, MaTu-ADR cells, 4 days incubation, crystal violet. The format is cell-based. The essentials: (§1)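 Cells seeded ~5000/well, treated after 24 h with 0.01-30 μM compound (0.5% DMSO) for 4 days. Glutaraldehyde-fixed cells stained with crystal violet, absorbance at 595 nm; growth expressed as percent, normalized to zero-point plate (0%) and untreated cells (100%).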

Test [2] relates to NCI-H460, human non-small-cell lung cancer cells. The test is described as follows: Proliferation assay, H460. The format is cell-based. The note with it: NCI-H460, 96 h, 4 days incubation, crystal violet. The essentials:
as §1

Test [3] has as its system HCT 116, human colon cancer cells. The test is described as follows: Proliferation assay, HCT116. The note with it: HCT-116, 96 h, 4 days incubation, crystal violet. The format is cell-based. An excerpt: Cultivated human tumor cells (MCF7, hormone-independent human breast cancer cells, related to ATCC HTB22; NCI-H460, human non-small-cell lung cancer cells, ATCC HTB-177, HCT 116, human colon cancer cells, ATCC CCL-247; DU 145, hormone-independent human prostate cancer cells, ATCC HTB-81; MaTu-MDR, hormone-independent, multiple pharmaceutical agent-resistant human breast cancer cells, EPO-GmbH, Berlin) were flattened out at a density of about 5000 cells/measuring point, depending on the growth rate of the respective cells, in a 96-well multititer plate in 200 μl of the corresponding growth medium. After 24 hours, the cells of one plate (zero-point plate) were colored with crystal violet (see below), while the medium of the other plates was replaced by fresh culture medium (200 μl), to which the test substances were added in various concentrations (0 μm, as well as in the range of 0.01-30 μm; the final concentration of the solvent dimethyl sulfoxide was 0.5%). The cells were incubated for 4 days in the presence of test substances. The cell proliferation was determined by coloring the cells with crystal violet: the cells were fixed by adding 20 μl/measuring point of an 11% glutaric aldehyde solution for 15 minutes at room temperature. After three washing cycles of the fixed cells with water, the plates were dried at room temperature. The cells were colored by adding 100 μl/measuring point of a 0.1% crystal violet solution (the pH was set at 3 by adding acetic acid). After three washing cycles of the colored cells with water, the plates were dried at room temperature. The dye was dissolved by adding 100 μl/measuring point of a 10% acetic acid solution. The extinction was determined by photometry at a wavelength of 595 nm. The change of cell growth, in percent, was calculated by normalization of the measured values to the extinction values of the zero-point plate (=0%) and the extinction of the untreated (0 μm) cells (=100%).

In test [4] the test system is DU 145, hormone-independent human prostate cancer cells. The test is described as follows: Proliferation assay, DU145. The format is cell-based. The note with it: DU-145, 96 h, 4 days incubation, crystal violet. The gist of the method:
as §1

For test [5], the target named is T1, VEGF receptor tyrosine kinase-2 (Homo sapiens, UniProt P35968).
T1 construct: GST; made in house; host or cells: baculovirus-infected insect cells (Sf9)
The test is described as follows: VEGF Receptor-2 Kinase Assay. The class given is biochemical. The conditions noted are these: poly-(Glu4Tyr) substrate, 33P-ATP, 10 minutes at 22° C.; read-out: VEGF-R2 IC50.

The test system of test [6] is MCF7, hormone-independent human breast cancer cells. The test is described as follows: Proliferation assay, MCF7. The class given is cell-based. The conditions noted are these: MCF7, 96 h, 4 days incubation, crystal violet. The gist of the method:
as §1

Test [7] concerns the target T2, CDK1/CycB (Homo sapiens, UniProt P06493).
T2 construct: GST; purchased ProQinase GmbH, Freiburg; host or cells: baculovirus-infected insect cells (Sf9)
The test is described as follows: CDK1/CycB Kinase Assay. The class given is biochemical. The note with it: histone IIIS substrate, 33P-ATP, 15 minutes at 22° C.

Test [8] has as its target Human Carboanhydrase-2 (Homo sapiens, UniProt P00918). The test is described as follows: Carboanhydrase Assay. The format is biochemical. The note with it: 4-nitrophenyl acetate hydrolysis, 400 nm; read-out: Inhibition of Human Carboanhydrase-2 IC50. How it is done: 2 μl of the test compounds, dissolved in DMSO (100× the final concentration), in a concentration range of 0.03-10 μm (final), was pipetted as 4× determinations into the holes of a 96-hole microtiter plate. Holes that contained the solvent without test compounds were used as reference values (1. Holes without carboanhydrase for correction of the non-enzymatic hydrolysis of the substrate, and 2. Holes with carboanhydrase for determining the activity of the non-inhibited enzyme).
188 μl of assay buffer (10 mmol of Tris/HCl, pH 7.4, 80 mmol of NaCl), with or without 3 units/hole on carboanhydrase I or II, was pipetted into the holes of the microtiter plate.

Test [9] addresses T3, CDK2/CycE (Homo sapiens, UniProt P24941).
T3 construct: GST; purchased ProQinase GmbH, Freiburg; host or cells: baculovirus-infected insect cells (Sf9)
The test is described as follows: CDK2/CycE Kinase Assay. The format is biochemical. The conditions noted are these: histone IIIS substrate, 33P-ATP, 15 minutes at 22° C. The essentials:
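Recombinant GST-tagged CDK2/CycE from Sf9 cells (50 ng/point) was incubated with compound (0.01-100 μM) for 15 min at 22° C, pH 8.0, with 0.5 μM ATP plus ^33P-γ-ATP and histone IIIS as substrate, in 12.5% DMSO. Incorporated ^33P was counted after filter binding and washing.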

T2 sequence (P06493 whole entry): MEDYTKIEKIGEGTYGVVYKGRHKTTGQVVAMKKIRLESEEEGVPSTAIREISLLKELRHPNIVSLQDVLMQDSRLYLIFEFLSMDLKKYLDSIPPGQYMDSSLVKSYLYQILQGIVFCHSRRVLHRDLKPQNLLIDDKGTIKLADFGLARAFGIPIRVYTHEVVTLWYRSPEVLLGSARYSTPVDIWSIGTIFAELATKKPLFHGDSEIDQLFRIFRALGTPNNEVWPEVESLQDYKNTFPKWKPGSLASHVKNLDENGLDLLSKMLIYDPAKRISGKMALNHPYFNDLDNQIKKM
T2 sequence (P14635 whole entry partner): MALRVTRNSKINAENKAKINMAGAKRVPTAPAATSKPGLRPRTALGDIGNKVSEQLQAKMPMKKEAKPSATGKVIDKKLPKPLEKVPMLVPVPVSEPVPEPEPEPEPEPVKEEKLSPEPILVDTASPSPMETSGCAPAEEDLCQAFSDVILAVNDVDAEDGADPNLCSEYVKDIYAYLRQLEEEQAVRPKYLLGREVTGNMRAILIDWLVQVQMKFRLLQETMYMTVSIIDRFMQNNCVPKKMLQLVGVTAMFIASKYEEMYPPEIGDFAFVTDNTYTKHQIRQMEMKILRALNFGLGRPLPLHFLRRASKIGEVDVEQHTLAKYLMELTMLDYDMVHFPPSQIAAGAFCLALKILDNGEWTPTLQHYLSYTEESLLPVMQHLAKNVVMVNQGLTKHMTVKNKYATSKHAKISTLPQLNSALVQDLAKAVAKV
T1 sequence (P35968 20-1356): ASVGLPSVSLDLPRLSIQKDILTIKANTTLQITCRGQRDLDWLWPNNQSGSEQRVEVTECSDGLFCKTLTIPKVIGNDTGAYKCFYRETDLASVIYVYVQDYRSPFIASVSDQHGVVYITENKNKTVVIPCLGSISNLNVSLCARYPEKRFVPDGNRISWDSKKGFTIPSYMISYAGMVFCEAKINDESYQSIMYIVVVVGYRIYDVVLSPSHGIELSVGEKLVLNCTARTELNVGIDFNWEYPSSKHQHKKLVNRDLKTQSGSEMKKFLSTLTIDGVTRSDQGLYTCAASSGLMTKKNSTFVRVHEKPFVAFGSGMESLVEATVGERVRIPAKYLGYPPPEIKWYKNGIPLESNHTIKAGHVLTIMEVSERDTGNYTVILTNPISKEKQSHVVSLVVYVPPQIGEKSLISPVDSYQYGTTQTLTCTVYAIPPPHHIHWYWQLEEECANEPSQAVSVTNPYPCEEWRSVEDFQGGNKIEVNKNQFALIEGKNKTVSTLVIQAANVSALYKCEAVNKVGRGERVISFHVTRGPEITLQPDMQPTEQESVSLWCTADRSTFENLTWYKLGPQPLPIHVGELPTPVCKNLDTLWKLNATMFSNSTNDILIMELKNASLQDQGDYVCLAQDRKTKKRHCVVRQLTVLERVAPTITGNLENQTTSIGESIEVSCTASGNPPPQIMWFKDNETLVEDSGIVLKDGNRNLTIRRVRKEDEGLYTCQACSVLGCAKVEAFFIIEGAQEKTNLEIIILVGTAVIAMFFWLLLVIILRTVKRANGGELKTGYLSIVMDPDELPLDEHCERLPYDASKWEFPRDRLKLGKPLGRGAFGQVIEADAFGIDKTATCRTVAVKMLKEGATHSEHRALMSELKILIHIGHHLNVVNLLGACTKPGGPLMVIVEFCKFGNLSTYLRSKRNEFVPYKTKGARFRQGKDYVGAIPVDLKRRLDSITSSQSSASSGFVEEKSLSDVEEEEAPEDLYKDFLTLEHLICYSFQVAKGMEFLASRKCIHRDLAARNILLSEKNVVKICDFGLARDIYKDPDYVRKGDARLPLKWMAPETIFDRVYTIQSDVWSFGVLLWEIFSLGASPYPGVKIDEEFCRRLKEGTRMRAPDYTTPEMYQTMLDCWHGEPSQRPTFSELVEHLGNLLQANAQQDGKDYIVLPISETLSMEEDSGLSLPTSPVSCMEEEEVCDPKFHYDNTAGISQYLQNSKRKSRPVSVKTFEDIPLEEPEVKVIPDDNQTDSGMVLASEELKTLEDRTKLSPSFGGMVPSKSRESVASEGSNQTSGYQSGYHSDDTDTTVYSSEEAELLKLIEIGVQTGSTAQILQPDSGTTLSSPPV

Broadly, the IC50 is the midpoint of a concentration-inhibition curve. On to `C[C@@H](O)[C@@H](C)Oc1nc(Nc2ccc(S(C)(=N)=O)cc2)ncc1Br` (mixture of isomers) [Example 1.4, (RS)-S-[4-({5-bromo-4-[(1R,2R)-2-hydroxy-1-methylpropoxy]pyrimidin-2-yl}amino)phenyl]-S-methyl sulfoximide], for which the IC50 in [1] came out at 80 nM; in test [2], 60 nM; in [3], 50 nM; in [4], 100 nM; in [5], 340 nM; in [6] it was 60 nM. The molecule also returned an IC50 in test [7] of 13 nM.

As to `C[C@H](CO)Nc1nc(Nc2ccc(S(C)(=N)=O)cc2)ncc1Br` (mixture of isomers) [Example 1.0, (RS)-S-[4-({5-Bromo-4-[(R)-(2-hydroxy-1-methylethyl)amino]pyridimin-2-yl}amino)phenyl]-S-methyl sulfoximide], the 50% inhibitory concentration (IC50) in test [8] is > 10000 nM; in test [1], 1600 nM; in test [2], 1200 nM; in test [3] it was 400 nM; in [4] it was 1500 nM; in test [9] it was < 10 nM. Also, the values for the IC50 in test [5], in test [6] and in test [7] were 40 nM, 300 nM and 79 nM, respectively.

Consider `CC(C)Nc1nc(Nc2ccc(S(C)(=N)=O)cc2)ncc1Br` (racemic) [Example 2.0, (RS)-S-(4-{[5-bromo-4-(isopropylamino)pyrimidin-2-yl]amino}phenyl)-S-methyl sulfoximide], for which the IC50 in [8] is > 10000 nM; in [1], 400 nM; in test [2], 300 nM; in test [3], 300 nM; in test [4] it was 1700 nM; in [6], 1500 nM. Besides, in [7], the IC50 was determined as 110 nM.

For the molecule `C[C@@H](Nc1nc(Nc2ccc(S(C)(=N)=O)cc2)ncc1Br)C(C)(C)O` (single isomer, unassigned) [Example 1.3], the 50% inhibitory concentration (IC50) in [1] is 170 nM; in test [3] it was 100 nM; in [4], 200 nM; in test [6] it was < 100 nM.
